Counter-ions that a name gives are not always drawn. Like-named read-outs stand apart in the source and are kept apart here.
Assays:
mu opiate receptor = molecular target: T1, mu opiate receptor (Rattus norvegicus, UniProt P33535); experiment: Mu opiate receptor binding (3H-Dihydromorphine); settings: Table 2; 3H-Dihydromorphine 0.2 nM, rat brain
T1 construct: The receptor membrane homogenate was prepared using rat brain; from tissue; host or cells: rat brain membrane homogenate
Method: (§1) Several subtypes of opiate receptors have been identified. These multiple receptors are thought to mediate the different effects of opiates, e.g., mu receptors are believed to mediate the analgesic activity of opiates. Therefore, the relative affinities of the test compounds for the mu and the delta opiate receptors was determined. The receptor membrane homogenate was prepared using rat brain as previously described in this document. The binding assays for the mu and delta receptors were performed using a modification of the method described by Chang and Cuatrecasas. K.-J. Chang and P. Cuatrecasas. Multiple Opiate receptors: enkephalins and morphine bind to receptors of different specificity, J. Biol. Chem. 254, 2610-2618 (1979). The incubation mixtures contained 0.75 ml of homogenate (1 mg protein/ml) and 0.05 ml of ^3 H-Dihydromorphine (final concentration of 0.2 nM) or 0.05 ml ^3 H-(D)-Ala^2 -(D)-Leu^5 enkephalin (final concentration of 0.2 nM). Both the displacer, naloxone, and the test compounds were added in 0.1 ml volumes. Finally, […] tris-HCl buffer (pH 7.4 at 25° C.) was added to bring the total volume up to 1 ml. The mixture were then incubated 60 minutes at 25° C. before filtering.
(§2) The IC50 values, i.e., the concentration of the test compound that inhibited ligand specific binding to its receptor by 50%, were calculated using log-probit analysis, D. J. Finney. […]

delta opiate receptor = molecular target: T2, delta opiate receptor (Rattus norvegicus, UniProt P33533); experiment: Delta opiate receptor binding (3H-(D)-Ala2-(D)-Leu5 enkephalin); settings: Table 2; 3H-(D)-Ala2-(D)-Leu5 enkephalin 0.2 nM, rat brain
T2 construct: The receptor membrane homogenate was prepared using rat brain; from tissue; host or cells: rat brain membrane homogenate
Method: as §1, §2

mice = experiment: Writhing assay (phenylbenzoquinone); format: in vivo, mouse; settings: for ED50: Mus musculus; for Writhing Mouse Oral (ED50) / Writhing Mouse Subc. (ED50): Table 1; for Writhing Mouse Subc. (ED50): subcutaneous
Method: Male Charles River albino mice (CD-1/HAM/1LR) weighing between 20 and 30 grams were used. Thirty minutes after subcutaneous or intragastric administration of the test compound (0.1 ml/10 gram body weight), 0.025% (w/v) phenylbenzoquinone was injected intraperitoneally (0.1 ml/10 gram body weight). Five minutes later, each mouse was placed in a large glass beaker and the number of writhes that occurred in the subsequent ten minutes is counted. A writhe consisted of dorsoflexion of the back, extension of the hindlimbs, and strong contraction of the abdominal musculature. The test compound was considered to have produced analgesia in a mouse if the number of writhes elicited by phenylbenzoquinone was equal to or less than one-half the median number of writhes recorded for the saline-treated group that day. The results were expressed as the number of mice (out of a possible ten) in which the test compound produced analgesia. The test compound was rated active if writhing was inhibited (as described) in 5 of 10 mice.
The receptor binding and biological properties of the following compounds of this invention are illustrated in Tables 1 and 2 utilizing the previously described opiate binding, hot plate, tail flick, writhing assay, cholera test or hypertensive test. The standard screening dose for the hot plate test of Table 1 was 10 mg/kg i.v. and for the writhing assay was 10 mg/kg s.c. and p.o.

rat cholera model = experiment: Cholera-induced intestinal fluid secretion (rat cholera model); format: in vivo
Method: The rat cholera model was used to determine the effect of the test compounds on intestinal fluid movements. (H. I. Jacoby and C. H. Marshall, Antagonism of Cholera Enterotoxin by Anti-inflammatory Agents in the Rat. Nature, 235, 163-165, 1972). Female Charles River rats weighing 85-100 grams and having free access to water were fasted for 24 hours prior to each experiment. After a midline incision was made under ether anesthesia, a 20-cm ligated small intestinal segment was constructed starting 3 cm distal to the ligament of Treitz. Each segment was injected, using a 27 gauge 1/2-inch needle, with crude cholera toxin in a 0.9% saline solution. Thirty minutes before cholera toxin was injected, test compounds were administered subcutaneously to groups of four rats at doses of 10 and 20 mg/kg. Four hours after injection of toxin, the animals were sacrificed and the fluid content and exact length of the intestinal segments were measured. Fluid secretion was expressed in ml/cm of intestine.
The ID50 's of these compounds were estimated using data obtained from at least two doses and at least two experiments by the method of maximum likelihood. R. A. Fischer. "Principles of Statistical Estimation." in Statistical Methods for Research Workers, 14th ed. Hafner: New York; pp. 301-339. […]

[1] = tested on: spontaneous hypertensive rats (SHR); experiment: Hypertensive test in spontaneous hypertensive rats (SHR); format: in vivo, rat; design: key to Antihypertensive Properties, Result: Active: Any compound that resulted in a decrease in arterial blood pressure of 20 mm Hg or greater was considered active; settings: for Antihypertensive Properties, Result: Table 3, 10 mg/kg intravenously, one unanesthetized male SHR
Method: A compound's ability to act as an antihypertensive agent was determined using spontaneous hypertensive rats (SHR). Male SHR were maintained in-house for 1 or more weeks before use and were between 11 and 16 weeks old. The test compound was administered intravenously and the initial mean arterial blood pressure was measured directly via an arterial catheter implanted immediately before administration of the compound. Blood pressure readings were made 5, 10 and 15 minutes after administration of the compound. […] Statistical comparisons were made using the unpaired student's test.
The following compounds of the invention were evaluated for their antihypertensive properties using the spontaneous hypertensive rat (SHR). […] The SHR test was essentially that described earlier. Each compound listed in Table 3, was administered intravenously to one unanesthetized, male, spontaneously hypertensive rat; the dosage was 10 mg/kg.

T2 sequence (P33533 whole entry): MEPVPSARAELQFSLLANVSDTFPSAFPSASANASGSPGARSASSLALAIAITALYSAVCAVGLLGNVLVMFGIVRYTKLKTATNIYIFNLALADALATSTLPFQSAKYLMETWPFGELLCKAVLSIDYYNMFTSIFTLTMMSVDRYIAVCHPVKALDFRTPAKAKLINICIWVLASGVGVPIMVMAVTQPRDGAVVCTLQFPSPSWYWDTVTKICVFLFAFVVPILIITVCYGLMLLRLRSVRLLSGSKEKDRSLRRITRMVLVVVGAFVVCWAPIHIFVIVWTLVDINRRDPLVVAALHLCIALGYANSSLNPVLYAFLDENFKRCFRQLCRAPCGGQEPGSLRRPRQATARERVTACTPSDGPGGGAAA
T1 sequence (P33535 whole entry): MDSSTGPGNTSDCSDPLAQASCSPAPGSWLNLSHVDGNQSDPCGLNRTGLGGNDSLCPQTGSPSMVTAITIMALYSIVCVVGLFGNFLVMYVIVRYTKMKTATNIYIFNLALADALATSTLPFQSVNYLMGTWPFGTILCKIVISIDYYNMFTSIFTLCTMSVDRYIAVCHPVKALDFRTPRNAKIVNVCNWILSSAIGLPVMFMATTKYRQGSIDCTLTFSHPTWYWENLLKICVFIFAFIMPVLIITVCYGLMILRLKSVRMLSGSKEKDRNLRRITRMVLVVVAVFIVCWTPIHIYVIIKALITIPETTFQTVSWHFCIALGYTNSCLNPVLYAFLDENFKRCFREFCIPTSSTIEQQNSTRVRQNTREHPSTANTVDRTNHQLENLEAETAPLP

Cc1cc(O)cc(C)c1C[C@H](N)C(=O)N[C@H](C)C(=O)NCCCc1ccccc1 [Example 5, 2,6-dimethyltyrosyl-N-(3-phenylpropyl)-D-alaninamide, hydrochloride]
IC50 (mu opiate receptor): 0.1 nM | IC50 (delta opiate receptor): 1.2 nM | ED50 (mice; po, Table 2, p.o., read-out: Writhing (ED50) p.o.): 0.5 mg/kg | ED50 (mice; sc, Table 2, s.c., read-out: Writhing (ED50) s.c.): 0.5 mg/kg | Writhing Mouse Oral (ED50) (mice; hydrochloride): 0.53 mg/kg | Writhing Mouse Subc. (ED50) (mice; hydrochloride): 0.52 mg/kg | activity in writhing test relative to the prior art, oral (mice; administered orally, more active than prior art): 6 times | potency in writhing test relative to the prior art, subcutaneous (mice; subcutaneous administration): approximately equipotent | ED50 (rat cholera model; Rattus norvegicus, sc, read-out: Rat Cholera Test (ED50)): 6.1 mg/kg | SHR Blood Pressure, dose printed (active at) ([1]; Table 2, i.v.): 1 mg/kg | Antihypertensive Properties, Result [1]: Active

tyrosine-D-alanine-phenylpropylamide [Prior Art, reference compound]
IC50 (mu opiate receptor): 8.8 nM | IC50 (delta opiate receptor): 62 nM | Writhing Mouse Oral (ED50) (mice): 0.58 mg/kg | Writhing Mouse Subc. (ED50) (mice): 3.10 mg/kg | Writhing (ED50) s.c. (mice; Table 2, s.c.): 0.6 mg/kg | Rat Cholera Test, activity at stated dose (rat cholera model; 20 mg/kg s.c.): Inactive | SHR Blood Pressure, activity at stated dose ([1]; Table 2, 10 mg/kg i.v.): Active | Antihypertensive Properties, Result [1]: Active

— patent US4599325A, “Substituted tyrosyl alanine dipeptide amides” (G. D. Searle & Co., priority 1985, dated 1986)
